The target of the experiment is T1, acetylcholinesterase (AChE) (Homo sapiens, UniProt P22303).
T1 construct: recombinant acetylcholinesterase (AChE) expressed in HEK 293 cells
The experiment can be described thus: Ellman assay, percent inhibition at […]. Format: biochemical.

The structures appear in SMILES notation.

T1 sequence (P22303 32-614): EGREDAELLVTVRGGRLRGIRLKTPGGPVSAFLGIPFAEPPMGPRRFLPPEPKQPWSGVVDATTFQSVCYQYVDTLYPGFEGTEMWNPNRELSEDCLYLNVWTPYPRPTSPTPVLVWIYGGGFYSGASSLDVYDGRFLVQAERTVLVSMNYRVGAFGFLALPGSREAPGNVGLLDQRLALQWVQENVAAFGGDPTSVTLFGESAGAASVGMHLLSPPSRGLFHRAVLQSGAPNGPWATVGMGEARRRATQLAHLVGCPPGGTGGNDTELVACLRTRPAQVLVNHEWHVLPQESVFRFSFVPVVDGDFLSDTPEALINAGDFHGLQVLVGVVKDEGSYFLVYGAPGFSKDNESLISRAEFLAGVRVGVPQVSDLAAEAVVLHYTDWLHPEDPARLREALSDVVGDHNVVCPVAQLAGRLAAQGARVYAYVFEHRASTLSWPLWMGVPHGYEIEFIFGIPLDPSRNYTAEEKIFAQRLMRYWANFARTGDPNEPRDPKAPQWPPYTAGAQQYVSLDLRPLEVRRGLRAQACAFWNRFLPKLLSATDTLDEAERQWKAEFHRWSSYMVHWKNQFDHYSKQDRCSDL

What is called inhibition is the share of the control response that was lost under treatment. A higher inhibition goes with a response far below the control. `C#CCN[C@@H]1CCc2ccccc21` [Rasagiline, reference compound] came in with an inhibition at 75 µM of 82.5 ± 4.3%.

Compound `O=C1c2ccccc2C2=NCCc3cccc1c32` [OXO 1, 2,3-dihydro-7H-dibenzo[de,h]quinolin-7-one] returned an inhibition at 75 µM of 26.2 ± 5.6%.

As to `O=C1C2=C(CCCC2)C2=NCCc3cccc1c32` [OXO 13, 2,3,8,9,10,11-hexahydro-7H-dibenzo[de,h]quinolin-7-one], the inhibition at 75 µM came out at 25.6 ± 5.9%.

The values are drawn from article PMC3812281, “Synthetic Oxoisoaporphine Alkaloids: In Vitro, In Vivo and In Silico Assessment of Antileishmanial Activities” (PLoS ONE, 2013).
